Results from PMC10955127 (Frontiers in Pharmacology, 2024).
Read-outs that look alike come from different tables or passages of the source.

How the values were obtained:
[1] = molecular target: Human MRP4 (Homo sapiens, UniProt O15439); conditions: not told
[2] = tested on: TSHR; design: method as in ToxCast database; conditions: ref ToxCast database; cited from earlier work
[3] = molecular target: Human OAT2v1 (Homo sapiens, UniProt Q9Y694)
[4] = tested on: estrogen receptor; design: method as in ToxCast database; conditions: ref ToxCast database; cited from earlier work
[5] = tested on: androgen receptor; design: method as in ToxCast database; conditions: ref ToxCast database; cited from earlier work
[6] = Protocol: Figure 8 provides an overview of the tiered workflow and the related in silico and in vitro NAMs used to calculate the MoIE. […] Since this assessment is conducted using plasma concentrations rather than external doses, the comparison is an MoIE.
In this assessment, the total plasma concentrations were used, rather than unbound concentrations, because they are compared with nominal doses used in the in vitro assays (biokinetics in the toxicogenomics incubations were not measured).

[7] = tested on: Thyroid (TR and TPO only); design: method as in ToxCast; conditions: ref ToxCast, cited from earlier work
[8] = tested on: thyroid pathway; design: method as in ToxCast database; conditions: ref ToxCast database; cited from earlier work
[9] = molecular target: Human OAT3 (Homo sapiens, UniProt Q8TCC7)
[10] = tested on: androgen receptor (AR); design: method as in ToxCast; conditions: ref ToxCast, cited from earlier work
[11] = In vitro skin penetration and metabolism, fresh viable pig skin on static Franz cells; conditions: 24 h; epidermis + dermis + receptor fluid
Source text: Fresh viable pig skin (without hot steam treatment, by-product from meat industry) was obtained from a local, commercial butcher (Hammoor, Germany). The back skin was from female pigs (bred from “Dänische Landrasse” (female) and Pietrain (male) pigs, ~130 days old, 100 kg body weight). Pig skin samples were gently dry-shaved and washed with water before use. For the experiment, 2 replicate discs from each of 3 donors were used.
Skin of full-thickness was mounted on static Franz cells with a 4.9 cm² application area. The receptor compartment of the diffusion cell was filled with approx. 5 ml RF (1% BSA, 0.9% NaCl, 0.05% gentamycin sulfate in water), above a magnetic stirrer set to low rotation. […] The experiment was conducted using non-occluded conditions.
The dermal absorption was calculated as the total amount present within epidermis (without the amount in the total SC strips), dermis and RF.

[12] = tested on: androgen receptor; design: method as in ToxCast database; conditions: ref ToxCast database; cited from earlier work; remark: listed apart in the source
Remark: listed apart in the source
[13] = molecular target: acetylcholinesterase (h) (Homo sapiens, UniProt P22303); assay: Pharmacology profiling: acetylcholinesterase; assay type: biochemical
[14] = tested on: thyroid pathway; design: method as in ToxCast database; conditions: ref ToxCast database; cited from earlier work; remark: listed apart in the source
[15] = in vitro; assay type: in vitro ADME
Protocol: […]. Samples were precipitated with an equal volume of acetonitrile containing internal standards (1 μM diazepam, 1 μM griseofulvin, 10 μM diclofenac) and then centrifuged (4800 x g, room temperature, 5 min) before analysis by UHPLC-MS/HRMS.
The amount of compound in the samples was expressed as percentage of remaining compound compared to time point zero (=100%). These percentages were plotted against the corresponding time points. In vitro intrinsic clearance (CLint) and half-life (t1/2) estimates were determined using the rate of precursor disappearance and following formula, based on the well-stirred liver model (Obach 1999):
t1/2 = half-life [min]; k = slope from the linear regression of log [test compound] versus time plot [1/min]
Where CLint = in vitro intrinsic clearance [μl/min/10^6 cells]; t1/2 = half-life [min]; k = slope of the linear regression of log [test compound] versus time plot [1/min]; V = ratio of incubation volume and cell number and fu = unbound fraction in the blood. […]

[16] = tested on: androgen receptor; design: method as in ToxCast database; conditions: ref ToxCast database; cited from earlier work; remark: listed apart in the source
[17] = molecular target: Human MRP2 (Homo sapiens, UniProt Q92887); conditions: not told
[18] = tested on: hiPSCs differentiated into cardiomyocytes, hepatocytes, or neural rosettes; conditions: human
[19] = molecular target: T1, COX2(h) (Homo sapiens, UniProt P35354); assay: Pharmacology profiling: COX2; assay type: biochemical
T1 sequence (P35354 18-604): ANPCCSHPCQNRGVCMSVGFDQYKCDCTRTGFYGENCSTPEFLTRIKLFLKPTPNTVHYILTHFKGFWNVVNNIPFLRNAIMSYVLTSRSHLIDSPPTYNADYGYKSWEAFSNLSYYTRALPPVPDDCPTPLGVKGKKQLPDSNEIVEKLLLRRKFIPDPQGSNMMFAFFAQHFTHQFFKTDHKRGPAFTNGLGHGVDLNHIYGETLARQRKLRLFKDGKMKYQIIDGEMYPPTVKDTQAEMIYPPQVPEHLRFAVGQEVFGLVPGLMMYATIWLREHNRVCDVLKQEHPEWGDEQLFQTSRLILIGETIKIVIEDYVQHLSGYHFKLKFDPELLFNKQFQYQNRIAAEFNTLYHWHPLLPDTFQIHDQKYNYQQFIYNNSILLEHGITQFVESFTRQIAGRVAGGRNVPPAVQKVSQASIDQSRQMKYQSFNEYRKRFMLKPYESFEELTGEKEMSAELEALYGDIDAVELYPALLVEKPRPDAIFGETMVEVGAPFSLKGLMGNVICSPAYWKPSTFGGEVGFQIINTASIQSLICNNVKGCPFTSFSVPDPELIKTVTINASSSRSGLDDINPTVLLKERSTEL

[20] = in vitro; conditions: human, plasma
[21] = tested on: estrogen receptor; design: method as in ToxCast database; conditions: ref ToxCast database; cited from earlier work; remark: listed apart in the source

Chain of acetylcholinesterase (h) (P22303 32-614): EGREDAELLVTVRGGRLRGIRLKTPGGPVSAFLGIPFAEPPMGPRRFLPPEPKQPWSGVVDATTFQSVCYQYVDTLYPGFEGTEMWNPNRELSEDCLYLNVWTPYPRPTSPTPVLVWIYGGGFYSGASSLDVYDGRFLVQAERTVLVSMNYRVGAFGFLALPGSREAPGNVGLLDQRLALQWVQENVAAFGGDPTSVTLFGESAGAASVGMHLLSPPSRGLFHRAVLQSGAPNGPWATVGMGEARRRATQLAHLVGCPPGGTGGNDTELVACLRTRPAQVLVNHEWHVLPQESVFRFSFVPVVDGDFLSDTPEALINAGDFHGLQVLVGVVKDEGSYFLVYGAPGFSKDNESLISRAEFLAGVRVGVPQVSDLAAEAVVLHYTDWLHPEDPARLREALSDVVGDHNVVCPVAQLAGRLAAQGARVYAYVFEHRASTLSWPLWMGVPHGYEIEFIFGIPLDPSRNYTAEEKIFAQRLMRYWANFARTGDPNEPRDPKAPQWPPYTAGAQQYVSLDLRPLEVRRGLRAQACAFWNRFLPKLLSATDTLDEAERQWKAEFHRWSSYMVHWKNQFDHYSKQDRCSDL
Chain of Human OAT2v1 (Q9Y694 1-546 isoform Q9Y694-2): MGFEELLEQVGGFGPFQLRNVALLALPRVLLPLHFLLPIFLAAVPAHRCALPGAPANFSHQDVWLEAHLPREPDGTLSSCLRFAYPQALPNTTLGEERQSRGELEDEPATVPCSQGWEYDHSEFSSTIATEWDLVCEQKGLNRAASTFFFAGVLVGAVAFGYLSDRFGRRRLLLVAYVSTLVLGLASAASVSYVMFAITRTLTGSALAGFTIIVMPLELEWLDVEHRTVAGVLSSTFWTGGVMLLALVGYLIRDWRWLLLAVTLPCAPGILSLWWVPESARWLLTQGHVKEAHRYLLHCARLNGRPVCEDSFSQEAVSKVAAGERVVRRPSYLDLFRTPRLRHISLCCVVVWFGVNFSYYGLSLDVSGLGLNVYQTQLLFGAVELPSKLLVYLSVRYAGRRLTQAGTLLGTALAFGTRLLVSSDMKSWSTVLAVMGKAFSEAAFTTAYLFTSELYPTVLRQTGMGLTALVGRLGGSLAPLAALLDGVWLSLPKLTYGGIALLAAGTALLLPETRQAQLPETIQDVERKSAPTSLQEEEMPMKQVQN
Chain of Human OAT3 (Q8TCC7 whole entry): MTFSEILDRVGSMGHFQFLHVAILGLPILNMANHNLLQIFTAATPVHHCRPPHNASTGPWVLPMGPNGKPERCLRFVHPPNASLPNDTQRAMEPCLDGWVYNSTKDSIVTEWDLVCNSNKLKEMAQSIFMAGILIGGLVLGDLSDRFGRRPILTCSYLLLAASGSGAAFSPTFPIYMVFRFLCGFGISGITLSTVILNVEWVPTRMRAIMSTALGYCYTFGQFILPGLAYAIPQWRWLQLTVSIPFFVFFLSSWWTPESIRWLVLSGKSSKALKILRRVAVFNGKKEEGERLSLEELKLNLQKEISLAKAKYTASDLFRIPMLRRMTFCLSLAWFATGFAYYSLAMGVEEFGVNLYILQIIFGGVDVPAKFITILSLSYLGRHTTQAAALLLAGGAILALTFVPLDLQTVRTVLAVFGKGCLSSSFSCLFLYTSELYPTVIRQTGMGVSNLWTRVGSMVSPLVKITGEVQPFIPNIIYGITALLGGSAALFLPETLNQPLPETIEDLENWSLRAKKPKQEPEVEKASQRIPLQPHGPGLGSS
Chain of Human MRP2 (Q92887 whole entry): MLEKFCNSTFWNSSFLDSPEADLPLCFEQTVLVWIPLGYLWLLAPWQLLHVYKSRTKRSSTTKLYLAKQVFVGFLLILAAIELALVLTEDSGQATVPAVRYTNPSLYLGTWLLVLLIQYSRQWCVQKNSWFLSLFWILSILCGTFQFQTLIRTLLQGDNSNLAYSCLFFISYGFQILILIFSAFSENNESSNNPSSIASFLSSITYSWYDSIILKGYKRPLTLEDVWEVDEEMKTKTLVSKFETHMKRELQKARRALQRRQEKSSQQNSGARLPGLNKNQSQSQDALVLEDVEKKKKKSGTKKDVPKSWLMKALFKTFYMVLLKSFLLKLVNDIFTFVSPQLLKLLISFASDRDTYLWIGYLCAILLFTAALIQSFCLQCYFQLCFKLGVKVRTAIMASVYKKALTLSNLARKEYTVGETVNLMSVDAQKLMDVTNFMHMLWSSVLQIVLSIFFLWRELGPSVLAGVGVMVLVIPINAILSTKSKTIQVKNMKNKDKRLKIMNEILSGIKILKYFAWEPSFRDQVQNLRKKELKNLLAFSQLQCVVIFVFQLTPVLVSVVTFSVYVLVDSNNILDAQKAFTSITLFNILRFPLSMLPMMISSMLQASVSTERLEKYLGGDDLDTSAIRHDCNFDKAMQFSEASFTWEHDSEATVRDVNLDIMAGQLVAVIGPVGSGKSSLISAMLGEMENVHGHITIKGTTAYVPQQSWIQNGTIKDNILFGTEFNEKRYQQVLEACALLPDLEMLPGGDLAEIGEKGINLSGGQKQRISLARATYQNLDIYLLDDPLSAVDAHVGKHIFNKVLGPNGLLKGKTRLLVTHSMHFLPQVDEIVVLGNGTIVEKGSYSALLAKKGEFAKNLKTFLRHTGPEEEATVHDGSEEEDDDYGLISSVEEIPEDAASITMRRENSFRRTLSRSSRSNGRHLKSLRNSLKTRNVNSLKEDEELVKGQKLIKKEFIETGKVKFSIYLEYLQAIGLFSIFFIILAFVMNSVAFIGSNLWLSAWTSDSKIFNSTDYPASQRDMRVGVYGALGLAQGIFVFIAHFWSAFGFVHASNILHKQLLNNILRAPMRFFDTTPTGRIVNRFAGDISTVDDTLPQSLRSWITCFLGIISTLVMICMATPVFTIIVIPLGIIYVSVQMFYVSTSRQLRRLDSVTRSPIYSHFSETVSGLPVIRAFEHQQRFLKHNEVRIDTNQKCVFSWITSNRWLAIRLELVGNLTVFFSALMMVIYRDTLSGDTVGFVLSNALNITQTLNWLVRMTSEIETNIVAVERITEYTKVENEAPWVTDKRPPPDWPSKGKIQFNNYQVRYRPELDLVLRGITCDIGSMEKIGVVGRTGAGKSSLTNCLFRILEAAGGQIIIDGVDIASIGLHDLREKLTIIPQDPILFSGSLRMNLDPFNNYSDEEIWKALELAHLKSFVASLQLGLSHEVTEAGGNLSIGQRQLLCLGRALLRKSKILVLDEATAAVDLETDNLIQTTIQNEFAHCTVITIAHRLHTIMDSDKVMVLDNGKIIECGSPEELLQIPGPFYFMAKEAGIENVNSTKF
Chain of Human MRP4 (O15439 whole entry): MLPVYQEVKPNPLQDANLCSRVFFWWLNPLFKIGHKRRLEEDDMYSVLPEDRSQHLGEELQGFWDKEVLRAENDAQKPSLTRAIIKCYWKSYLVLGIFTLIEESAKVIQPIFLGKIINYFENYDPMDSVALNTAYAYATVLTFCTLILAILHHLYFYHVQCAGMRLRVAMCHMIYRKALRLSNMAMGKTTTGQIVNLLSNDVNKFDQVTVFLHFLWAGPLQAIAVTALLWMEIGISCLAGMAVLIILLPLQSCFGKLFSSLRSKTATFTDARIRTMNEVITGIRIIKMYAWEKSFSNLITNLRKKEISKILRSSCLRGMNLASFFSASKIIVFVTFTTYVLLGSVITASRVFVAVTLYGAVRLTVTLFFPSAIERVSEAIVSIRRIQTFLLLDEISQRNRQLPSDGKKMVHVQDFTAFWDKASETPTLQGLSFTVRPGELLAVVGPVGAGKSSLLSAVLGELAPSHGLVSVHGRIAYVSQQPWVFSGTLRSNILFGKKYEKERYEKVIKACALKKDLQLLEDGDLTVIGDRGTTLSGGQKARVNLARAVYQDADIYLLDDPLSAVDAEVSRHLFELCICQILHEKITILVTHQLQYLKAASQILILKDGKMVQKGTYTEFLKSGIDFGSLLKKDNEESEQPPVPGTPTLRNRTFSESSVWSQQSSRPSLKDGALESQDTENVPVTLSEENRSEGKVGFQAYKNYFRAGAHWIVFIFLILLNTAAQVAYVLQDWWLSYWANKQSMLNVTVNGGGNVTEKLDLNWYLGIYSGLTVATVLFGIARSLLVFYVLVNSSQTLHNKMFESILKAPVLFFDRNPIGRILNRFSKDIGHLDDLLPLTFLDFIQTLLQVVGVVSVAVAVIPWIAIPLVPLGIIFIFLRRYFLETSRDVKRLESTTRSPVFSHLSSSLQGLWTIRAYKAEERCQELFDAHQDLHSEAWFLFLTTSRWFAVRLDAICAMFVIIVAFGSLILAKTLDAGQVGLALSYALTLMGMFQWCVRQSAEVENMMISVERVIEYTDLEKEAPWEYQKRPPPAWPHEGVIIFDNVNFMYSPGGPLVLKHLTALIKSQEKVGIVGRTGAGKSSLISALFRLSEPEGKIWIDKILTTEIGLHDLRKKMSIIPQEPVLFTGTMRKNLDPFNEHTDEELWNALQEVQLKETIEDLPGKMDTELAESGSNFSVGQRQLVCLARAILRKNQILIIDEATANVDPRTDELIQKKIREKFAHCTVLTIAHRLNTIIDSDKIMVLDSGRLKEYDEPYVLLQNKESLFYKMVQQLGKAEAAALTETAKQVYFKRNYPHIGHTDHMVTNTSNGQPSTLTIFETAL

For `O=C(O)c1ccccc1O` [SA, salicylic acid], the “Substrate of MRP4 (efflux)” value [1] is given as “not a substrate”, the “Thyroid pathway Regulation of transcription factor activity (TSHR): Call” value [2] is given as “Negative” and the “Substrate of OAT2v1 (uptake)” value [3] is given as “not a substrate”. For the same compound, the “Estrogen pathway Dimerisation: Call” value [4] was “Negative”, the “Androgen pathway mRNA induction: Call” value [5] was “Negative” and the MoIE ([6]; PoD method 1 (213 µM) / CI95 Cmax 0.630 µM) was 338. It also gave a MoIE ([6]; PoD method 1 (213 µM) / mean Cmax 0.273 µM) of 780, a MoIE ([6]; PoD method 2 ([…]) / CI95 Cmax 0.630 µM) of 16 and a MoIE ([6]; PoD method 2 ([…]) / mean Cmax 0.273 µM) of 38. The “Thyroid (TR and TPO only): Experimental Data (call)” value ([7]; Tier 0) was “Negative”, the “Thyroid (TR and TPO only): assays active / assays” value [7] was 0/11 active and the “Thyroid pathway Reporter protein Antagonist: Call” value [8] was “Negative”. The “Substrate of OAT3 (uptake)” value [9] was “borderline substrate”, the “Androgen: Experimental Data (call)” value ([10]; Tier 0) was “Negative” and the “Androgen: assays active / assays” value [10] was 1/15 active (noise). The “Dermal absorption of individual analytes” value [11] was 6.9 ± 0.4 percentage of the applied dose, the “Androgen pathway Reporter protein Antagonist: Call” value [12] was “Negative” and the “Fraction unbound in the plasma (Fup)” value was 3 to ∼20. For the same compound, the inhibition at 10 µM ([13]; 10 µM SA, two technical replicates) was 25.4%, the “Inhibition of acetylcholinesterase, follow-up” value ([13]; 10 μM to 1 mM SA) was no more than 5% and the “Thyroid pathway mRNA induction: Call” value [14] was “Negative”. For the same compound, the “Further metabolism in PHH” value [15] was “not metabolized further”, the half-life at 20 µM ([15]; both sexes, human, hepatocytes, Half-life in PHH) was greater than 15.8 h and the hepatocyte CLint at 20 µM ([15]; both sexes, human, hepatocytes, In vitro intrinsic clearance (CLint, in vitro)) was roughly 0.9 µL/min/1e6 cells. For the same compound, the “Further metabolism in PHH” value ([15]; both, human, 240 min, 20 µM) was “not further metabolized”, the “Androgen pathway receptor binding: Call” value [16] was “Negative” and the “Substrate of MRP2 (efflux)” value [17] was “not a substrate”. The PoD [18] was 500 µM, the IC50 [19] was greater than 10 mM and the “Inhibition of COX2, screening” value ([19]; 10 µM) was “did not inhibit”. The inhibition at 10000 µM ([19]; 10 mM) was 29%, the fraction unbound [20] was 0.029 to 0.18 and the “Estrogen pathway mRNA induction: Call” value [21] was “Negative”.
